{"source": "patent US20210388012A1", "about": "“METHODS AND COMPOSITIONS FOR PRODRUG FORMS OF SPECTINOMYCIN AND SPECTINAMIDE ANALOGS” (priority 2018, published 2021)", "key": {"[1]": {"assay": "in vitro", "format": "in vitro ADME", "details": "human plasma, 37° C., read-out: Plasma Stability (Human) t½ (converted)", "procedure": "LC-MS Method 2. Chromatographic separation was performed on an Acquity UPLC BEH C18 1.7 μm, 2.1×50 mm column (Waters Corporation, Milford, Mass.) or a Luna Omega 1.6 μm C18, 2.1×50 mm column (Phenomenex, Torrance, Calif.) using an Acquity ultra performance liquid chromatography system. Data were acquired using Masslynx v. 4.1 and analyzed using the Openlynx software suite. This was coupled to an Acquity photodiode array detector, which acquired UV data from 210-400 nm. The flow was then split, with half directed to an evaporative light scattering detector (ELSD) and half to an SQ mass spectrometer. The total flow rate was 1 mL/min. The sample injection volume was 10 μL. The UPLC column was maintained at 60° C. and the gradient program with either basic mobile phase (A1, 10 mM ammonium bicarbonate in MilliQ H2O; B1, 0.1% formic acid in acetonitrile) or formic mobile phase (A1, 0.1% formic acid in MilliQ H2O; B1, 0.1% formic acid in acetonitrile) based on the compounds' physical and chemical properties. The mass spectrometer was operated in positive-ion mode with electrospray ionization. The conditions were as follows; capillary voltage 3.4 kV, cone voltage 30 V, source temperature 130° C., desolvation temperature 400° C., desolvation gas 800 L/hr, cone gas 100 L/hr. A full scan range from m/z=110-1000 in 0.2 s was used to acquire MS data. The ELSD-drift tube temperature was set at 52° C.\nPlasma stability was determined after incubation in human plasma for various incubation time, i.e., incubation times of 0, 3, 24, and 48 hour were used. DMSO stock solutions of test compounds were prepared at 10 mM concentration. 1.8 μL of each test compound was each added directly to 1.8 mL of human plasma to get the final concentration of 10 μM. This compound/matrix was mixed and 70 μL was transferred to 4 time points plates (each in triplicate wells). […] The plasma stability was evaluated via the half-life from least-squares fit of the multiple time points based on first-order kinetics."}, "[2]": {"assay": "Single ascending maximum tolerated dose study in rat", "format": "in vivo", "details": "female Sprague-Dawley rats, 5 second IV bolus", "procedure": "Several compounds were assessed in single ascending maximum tolerated studies. The compounds assessed were 1810; 3408, a prodrug form of compound 1810; 1599, a chloro homologue of compound 1810; and gentamicin, an antimicrobial associated with ototoxicity. The study was carried out in female Sprague-Dawley rats (n=3 per group). All the drug solutions were prepared in water and PLASMA-LYTE A (50:50; […] was obtained from Baxter Healthcare Corporation, Deerfield, Ill.). Each group of rats were fasted overnight with access to water aJ libitum and a fixed volume (2 mL) of drug-containing solution was administered via the jugular vein catheter. Food was withheld for 3 h post dosing. Different phases of the study were classified on five different speeds of i.v, administration; Phase 1: 5 sec, Phase 2: 30 sec, Phase 3: 5 min, Phase 4: 15 min, Phase 5: 30 min. In the first and second phases, a set of predefined dose levels: 10, 25, 50, 75, 100, 150, 300, 350, 400, 450 and 500 mg/kg. Escalation to the next higher dose was conditional upon absence of signs of acute toxicity following the immediate lower dose over a 24 h period. All animals were monitored by visual inspection focused on focus on changes in skin, fur, eyes, and also respiratory, circulatory, autonomic and central nervous systems, along with somatomotor activity and behavior pattern, including tremors, convulsions, salivation, diarrhea, lethargy, sleep and coma. A dose level was deemed an MTD if […] of acute toxicity were observed and that dose was chosen for the second phase of the study where the process was repeated to determine a toxic dose. For third, fourth and fifth phases, dosing solution was infused by a Instech tethering system (Instech Laboratories Inc., Plymouth Meeting, Pa.) where the animal is freely moving within its cage, the catheter connection is held in place by a vascular access harness and a swivel system, and the drug administration is performed via a Harvard Apparatus programmable syringe pump. After dosing, the tether was removed immediately after completion of the infusion and the catheter was flushed with (100 μL) PlasmaLyte A. Surviving animals from the previous dose with no signs of toxicity were re-used in either phases of these studies upon allowing a one day drug washout period."}, "[3]": {"tested_on": "M. tuberculosis Erdman (TMCC107)", "assay": "Murine model of acute TB infection", "format": "in vivo", "details": "BALB/c mice, subcutaneous injection 400 mg/kg daily, 12 consecutive days"}, "[4]": {"tested_on": "M. tuberculosis H37Rv", "assay": "Minimum inhibitory concentration (MIC), microbroth dilution", "format": "cell-based", "details": "Mycobacterium tuberculosis, H37RV, 168 h, read-out: MIC (H37Rv)"}}}
{"smiles": "CN[C@@H]1[C@H](O)[C@H](NC)[C@H]2O[C@]3(O)[C@H](O[C@@H]2[C@H]1O)O[C@H](C)C[C@H]3NC(=O)Cc1ccc(OP(=O)(O)O)cn1", "note": "[Compound 3408, 6-(2-oxo-2-(((2R,4R,4a5,5aR,6S,7S,8R,9S,9aR,10aS)-4a,7,9-trihydroxy-2-methyl-6,8-bis(methylamino)decahydro-2H-benzo[b]pyrano[2,3-e][1,4]dioxin-4-yl)amino)ethyl)pyridin-3-yl dihydrogen phosphate]", "values": [{"measurement": "half-life at 10 µM", "setting": "[1]", "result": "< 5", "unit": "min"}, {"measurement": "MTD", "setting": "[2]", "result": ">500", "unit": "mg/kg"}, {"measurement": "MTD at 24 h", "setting": "[2]; female, Sprague-Dawley, rat, in vivo, iv, read-out: MTD", "result": "> 500", "unit": "mg/kg"}, {"measurement": "Efficacy in mouse model of acute tuberculosis infection (lung CFU, FIG. 1)", "setting": "[3]", "result": "similarly active"}, {"measurement": "MIC", "setting": "[4]", "result": 100, "unit": "µg/mL"}]}
